Counter-ions that a name gives are not always drawn.
What was measured:
[1] = molecular target: T1, Chk1 (Homo sapiens, UniProt O14757); test: Chk1 biochemical assay (CHK1/substrate peptide filter binding); details: 60 μM ATP, 0.75 nM Chk1 enzyme
T1 sequence (O14757 1-476): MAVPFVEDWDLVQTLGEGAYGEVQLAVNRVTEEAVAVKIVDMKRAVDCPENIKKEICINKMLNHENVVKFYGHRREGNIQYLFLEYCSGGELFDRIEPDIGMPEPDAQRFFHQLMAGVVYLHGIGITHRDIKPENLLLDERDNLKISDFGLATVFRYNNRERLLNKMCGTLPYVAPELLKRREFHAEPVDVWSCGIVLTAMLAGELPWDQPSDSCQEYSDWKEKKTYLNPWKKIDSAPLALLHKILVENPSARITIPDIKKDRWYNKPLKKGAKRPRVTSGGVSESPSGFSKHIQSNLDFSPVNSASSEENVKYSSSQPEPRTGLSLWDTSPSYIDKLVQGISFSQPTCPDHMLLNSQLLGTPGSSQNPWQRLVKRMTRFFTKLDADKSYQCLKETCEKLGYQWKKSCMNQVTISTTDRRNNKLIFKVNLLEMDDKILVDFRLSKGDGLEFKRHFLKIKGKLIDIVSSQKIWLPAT
Experimental: The effect of compounds on Chk1 biochemical activity can be determined using a CHK1/substrate peptide filter binding assay. In this assay, a synthetic peptide based on the amino acid sequence residues 206-225 of Cdc25, is used as a phospho-acceptor substrate for recombinant Chk1 protein kinase. Using γ-^33P-ATP as the phospho-donor substrate, Chk1 transfers the radioactive γ-^33phosphate group to the synthetic peptide. The reaction is measured by capturing the peptide substrate on a cation exchange paper filter plate and scintillation counting of emitted beta particles.
The kinase reactions (40 μL reaction volumes) are performed in 96-well V-bottom polystyrene plates. Reactions are initiated with the addition of Chk1 enzyme. […]
Following Chk1 enzyme addition, the reactions are incubated at room temperature for 90 min, and then terminated with the addition of 140 μL of phosphoric acid. […] After sitting for 4 h at room temperature, the radioactivity in the plate is measured using a MicroBeta Trilux microplate scintillation counter (Perkin Elmer).
For IC50 determination, the percent inhibition for each concentration is calculated using the scintillation count ratio from controls run on each plate. […] Absolute IC50 values are calculated from the resulting curve. […]

[2] = molecular target: T1, Chk1; test: Chk1 in vivo target inhibition assay (Calu-6 xenograft, phospho-Chk1 ser296); set-up: from tissue; host or cells: Calu-6 xenograft tumour from nude mice; species or system nude mice; details: Calu-6 tumors, oral, 6 h after gemcitabine 150 mg/kg ip, 2 h post dose
Experimental: Calu-6 cells are cultured in growth media (MEM with Earle's Balanced Salt Solution with L-glutamine supplemented with […], 1×MEM non-essential amino acids, 1× sodium pyruvate) and expanded. Cells are harvested and washed twice with phosphate buffered saline and 1×10^6 cells in growth media (without serum) are mixed with equal volume of BD Matrigel™ matrix, then injected subcutaneously into the flank of pre-irradiated (4.5 Gy) nude mice (athymic nude). At day 15 after implant (tumor size=150-200 mm^3), gemcitabine formulated fresh in saline daily is administered to animals by intraperitoneal route at 150 mg/kg dose. […] Antigen-antibody-reporter conjugates immobilized on the membrane are detected with the Super Signal Western Femto HRP-detection reagent.
Signals are detected and captured using the FUJI LAS-4000 imaging system. Phospho-Chk1(ser296) band intensities are calculated using “Total Lab” software (Nonlinear Dynamics). The percent inhibition of the gemcitabine induced Chk1 autophosphorylation is calculated by using the following formula: % inhibition=(sample-phospho-Chk1 band—intensity average gemcitabine (Max) positive control-phospho-Chk1 band intensity)/(average negative control (Min)-phosphor-Chk1 band intensity—average gemcitabine (Max) positive control-phospho-Chk1 band intensity)×100.

IC50 [1] | Target Modulatory Effective Dose 50 (TMED50) for Chk1 autophosphorylation [2] | Compound
< 1 nM | – | COc1nc(C)ccc1-c1cc(Nc2cncc(O[C@@H]3CCCNC3)n2)[nH]n1 [Example 1, (R)-[5-(2-Methoxy-6-methyl-pyridin-3-yl)-2H-pyrazol-3-yl]-[6-(piperidin-3-yloxy)-pyrazin-2-yl]-amine]
– | 1.3 mg/kg | COc1nc(C)ccc1-c1cc(Nc2cncc(O[C@@H]3CCCNC3)n2)[nH]n1 [Example 3, (R)-[5-(2-Methoxy-6-methyl-pyridin-3-yl)-2H-pyrazol-3-yl]-[6-(piperidin-3-yloxy)-pyrazin-2-yl]-amine acetic acid salt]
